Assay results reported in PubChem BioAssay AID328 (DTP/NCI, 2004).
Toxic doses and inconclusive results are not listed. The calls were made as follows: active = survival T/C of 150% or more; inactive = T/C below 125% in these data.

System: BDF1 mice, P388 leukemia ip, median survival T/C
Assay: NCI In Vivo Anticancer Drug Screen. Data for tumor model P388 Leukemia (intraperitoneal) in B6D2F1 (BDF1) mice
Conditions: endpoint: median survival time, higher = longer survival
Summary of the method: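 Each value expresses how treatment altered survival: treated-mouse outcome over vehicle-mouse outcome, both groups bearing the transplanted tumour.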

[1] = dose: 100.0 mg/kg/injection, schedule: Q04DX003 (ip), vehicle: saline with Tween-80
[2] = dose: 200.0 mg/kg/injection, schedule: Q04DX003 (ip), vehicle: saline with Tween-80
[3] = dose: 50.0 mg/kg/injection, schedule: Q01DX009 (ip), vehicle: saline
[4] = dose: 100.0 mg/kg/injection, schedule: Q04DX003 (ip), vehicle: saline

Measured: T/C

CCCCCCC1OCC2(CO1)COC(CCCCCC)OC2 (stereo not given)
inactive: [1] 90 % of control | [2] 86 % of control

NSc1ccc([N+](=O)[O-])cc1
inactive: dose: 100.0 mg/kg/injection, schedule: Q01DX001 (ip), vehicle: other 109 % of control

CCOC(=O)/C(C#N)=N\O
inactive: dose: 25.0 mg/kg/injection, schedule: Q01DX009 (ip), vehicle: saline 100 % of control | dose: 25.0 mg/kg/injection, schedule: Q04DX003 (ip), vehicle: saline 113 % of control | [3] 120 % of control | dose: 50.0 mg/kg/injection, schedule: Q04DX003 (ip), vehicle: saline 104 % of control | [4] 95 % of control

CN(C)c1ccc(C=O)cc1[N+](=O)[O-]
inactive: dose: 50.0 mg/kg/injection, schedule: Q04DX003 (ip), vehicle: Klucel (hydroxypropylcellulose) (HPC) 113 % of control | dose: 100.0 mg/kg/injection, schedule: Q04DX003 (ip), vehicle: Klucel (hydroxypropylcellulose) (HPC) 113 % of control | dose: 200.0 mg/kg/injection, schedule: Q04DX003 (ip), vehicle: Klucel (hydroxypropylcellulose) (HPC) 104 % of control

CCCCN1CCN(c2ccc([N+](=O)[O-])c3no[n+]([O-])c23)CC1
active: dose: 32.0 mg/kg/injection, schedule: Q04DX003 (ip), vehicle: saline with Tween-80 150 % of control
inactive: dose: 16.0 mg/kg/injection, schedule: Q04DX003 (ip), vehicle: saline with Tween-80 121 % of control | dose: 64.0 mg/kg/injection, schedule: Q04DX003 (ip), vehicle: saline with Tween-80 100 % of control

OCCOc1cccc(OCCO)c1
inactive: [1] 100 % of control | [2] 100 % of control | dose: 400.0 mg/kg/injection, schedule: Q04DX003 (ip), vehicle: saline with Tween-80 104 % of control

COc1cc(C=Nc2cc(Br)cc(Br)c2)ccc1N(CCCl)CCCl
inactive: dose: 400.0 mg/kg/injection, schedule: Q04DX003 (ip), vehicle: saline sonified 118 % of control
active: dose: 18.75 mg/kg/injection, schedule: Q04DX003 (ip), vehicle: other 204 % of control | dose: 22.0 mg/kg/injection, schedule: Q04DX003 (ip), vehicle: saline with Tween-80 200 % of control | dose: 33.0 mg/kg/injection, schedule: Q04DX003 (ip), vehicle: saline with Tween-80 222 % of control | dose: 37.5 mg/kg/injection, schedule: Q04DX003 (ip), vehicle: other 250 % of control | dose: 50.0 mg/kg/injection, schedule: Q04DX003 (ip), vehicle: saline with Tween-80 218 % of control | dose: 60.0 mg/kg/injection, schedule: Q04DX003 (ip), vehicle: saline with Tween-80 272 % of control | dose: 75.0 mg/kg/injection, schedule: Q04DX003 (ip), vehicle: other 250 % of control | dose: 100.0 mg/kg/injection, schedule: Q04DX003 (ip), vehicle: saline sonified 154 % of control | dose: 200.0 mg/kg/injection, schedule: Q04DX003 (ip), vehicle: saline sonified 263 % of control

O=S(=O)(CBr)N1CCOCC1
inactive: dose: 50.0 mg/kg/injection, schedule: Q01DX001 (ip), vehicle: saline with Tween-80 95 % of control | dose: 100.0 mg/kg/injection, schedule: Q01DX001 (ip), vehicle: saline with Tween-80 100 % of control | dose: 200.0 mg/kg/injection, schedule: Q01DX001 (ip), vehicle: saline with Tween-80 108 % of control

COC1N(C2CC(O)C(CO)O2)C(=O)NC(=O)C1(F)Br (stereo not given)
inactive: dose: 5.0 mg/kg/injection, schedule: Q01DX009 (ip), vehicle: saline 90 % of control | dose: 10.0 mg/kg/injection, schedule: Q01DX009 (ip), vehicle: saline 109 % of control | dose: 20.0 mg/kg/injection, schedule: Q01DX009 (ip), vehicle: saline 109 % of control | dose: 40.0 mg/kg/injection, schedule: Q01DX009 (ip), vehicle: saline 122 % of control | [3] 111 % of control | dose: 100.0 mg/kg/injection, schedule: Q01DX009 (ip), vehicle: saline 113 % of control | [4] 104 % of control | dose: 200.0 mg/kg/injection, schedule: Q01DX009 (ip), vehicle: saline 106 % of control | dose: 200.0 mg/kg/injection, schedule: Q04DX003 (ip), vehicle: saline 122 % of control | dose: 400.0 mg/kg/injection, schedule: Q01DX009 (ip), vehicle: saline 94 % of control
active: dose: 400.0 mg/kg/injection, schedule: Q04DX003 (ip), vehicle: saline 150 % of control

O=C(c1ccccc1)C1OC1c1ccccc1 (stereo not given)
inactive: dose: 100.0 mg/kg/injection, schedule: Q01DX009 (ip), vehicle: saline with Tween-80 93 % of control | dose: 200.0 mg/kg/injection, schedule: Q01DX009 (ip), vehicle: saline with Tween-80 99 % of control | dose: 400.0 mg/kg/injection, schedule: Q01DX009 (ip), vehicle: saline with Tween-80 100 % of control | dose: 600.0 mg/kg/injection, schedule: Q01DX009 (ip), vehicle: saline with Tween-80 100 % of control
